Laboratory results reported in PubChem BioAssay AID1963966 (Molecular Pharmacology Branch, DTP, NCI, 2024).

System: 935938-334-R-J1-PDC spheroids with HUVEC/MSC, viability
Assay: Anticancer human tumor 935938-334-R-J1-PDC patient-derived small intestine adenocarcinoma cell line growth inhibition [PI3K]
Details: for IC50: curve of first compound; for viability, T/C: stronger effect = lower value
Summary of the method: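 We assembled tumor spheroids that included a stromal compartment of HUVEC and MSCs, then exposed them to targeted agents alone and together with PI3K pathway inhibitors. Concentration series descended by half-log from clinically achievable Cmax levels. Viability served as the endpoint.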
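Note: compound exposure lasted seven days before viability was read.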
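Throughout, for viability, T/C: percent of vehicle DMSO treated spheroid viability so 100% = untreated.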

`CNC(=O)c1ccc(N2C(=S)N(c3ccc(C#N)c(C(F)(F)F)c3)C(=O)C2(C)C)cc1F` + CC(Nc1ncnc2nc[nH]c12)c1cc2cccc(Cl)c2c(=O)n1-c1ccccc1 was tested, and the IC50 (second compound 0.0316 µM) was > 10000 nM, the IC50 (second compound 0.1 µM) was > 10000 nM and the IC50 (second compound 0.316 µM) was > 10000 nM. For the same compound, the IC50 (second compound 1 µM) was > 10000 nM, the IC50 (second compound 3.16 µM) was > 10000 nM and the IC50 (second compound 10 µM) was > 10000 nM. The viability, T/C (second compound 0.0316 µM, first compound 0.0316 µM) was 102%, the viability, T/C (second compound 0.0316 µM, first compound 0.1 µM) was 94.8% and the viability, T/C (second compound 0.0316 µM, first compound 0.316 µM) was 136%. For the same compound, the viability, T/C (second compound 0.0316 µM, first compound 1 µM) was 85.2%, the viability, T/C (second compound 0.0316 µM, first compound 3.16 µM) was 78.2% and the viability, T/C (second compound 0.0316 µM, first compound 10 µM) was 133%. It also gave a viability, T/C (second compound 0.1 µM, first compound 0.0316 µM) of 98.1%, a viability, T/C (second compound 0.1 µM, first compound 0.1 µM) of 84.4% and a viability, T/C (second compound 0.1 µM, first compound 0.316 µM) of 102%. The viability, T/C (second compound 0.1 µM, first compound 1 µM) was 90%, the viability, T/C (second compound 0.1 µM, first compound 3.16 µM) was 81.3% and the viability, T/C (second compound 0.1 µM, first compound 10 µM) was 84.7%. For the same compound, the viability, T/C (second compound 0.316 µM, first compound 0.0316 µM) was 100%, the viability, T/C (second compound 0.316 µM, first compound 0.1 µM) was 72.2% and the viability, T/C (second compound 0.316 µM, first compound 0.316 µM) was 95.3%. It also gave a viability, T/C (second compound 0.316 µM, first compound 1 µM) of 83.6%, a viability, T/C (second compound 0.316 µM, first compound 3.16 µM) of 95% and a viability, T/C (second compound 0.316 µM, first compound 10 µM) of 65.4%. For the same compound, the viability, T/C (second compound 1 µM, first compound 0.0316 µM) was 97.4%, the viability, T/C (second compound 1 µM, first compound 0.1 µM) was 83.9% and the viability, T/C (second compound 1 µM, first compound 0.316 µM) was 70.8%. The viability, T/C (second compound 1 µM, first compound 1 µM) was 69.7%, the viability, T/C (second compound 1 µM, first compound 3.16 µM) was 96% and the viability, T/C (second compound 1 µM, first compound 10 µM) was 73.5%. For the same compound, the viability, T/C (second compound 3.16 µM, first compound 0.0316 µM) was 72.8%, the viability, T/C (second compound 3.16 µM, first compound 0.1 µM) was 91.4% and the viability, T/C (second compound 3.16 µM, first compound 0.316 µM) was 103%. The viability, T/C (second compound 3.16 µM, first compound 1 µM) was 99.9%, the viability, T/C (second compound 3.16 µM, first compound 3.16 µM) was 61% and the viability, T/C (second compound 3.16 µM, first compound 10 µM) was 81.8%. The viability, T/C (second compound 10 µM, first compound 0.0316 µM) was 80.8%, the viability, T/C (second compound 10 µM, first compound 0.1 µM) was 92% and the viability, T/C (second compound 10 µM, first compound 0.316 µM) was 72.3%. It also gave a viability, T/C (second compound 10 µM, first compound 1 µM) of 71.6%, a viability, T/C (second compound 10 µM, first compound 3.16 µM) of 75.3% and a viability, T/C (second compound 10 µM, first compound 10 µM) of 63.9%.
For `Cn1cnc2c(F)c(Nc3ccc(Br)cc3Cl)c(C(=O)NOCCO)cc21` + CC(Nc1ncnc2nc[nH]c12)c1cc2cccc(Cl)c2c(=O)n1-c1ccccc1, the IC50 (second compound 0.0316 µM) was 68.7 nM, the IC50 (second compound 0.1 µM) was 110 nM and the IC50 (second compound 0.316 µM) was 78.4 nM. For the same compound, the IC50 (second compound 1 µM) was 81.4 nM, the IC50 (second compound 3.16 µM) was 30.5 nM and the IC50 (second compound 10 µM) was 51.5 nM. For the same compound, the viability, T/C (second compound 0.0316 µM, first compound 0.00949 µM) was 82.2%, the viability, T/C (second compound 0.0316 µM, first compound 0.03 µM) was 63.5% and the viability, T/C (second compound 0.0316 µM, first compound 0.0949 µM) was 43.2%. For the same compound, the viability, T/C (second compound 0.0316 µM, first compound 0.3 µM) was 34.5%, the viability, T/C (second compound 0.0316 µM, first compound 0.949 µM) was 27.5% and the viability, T/C (second compound 0.0316 µM, first compound 3 µM) was 21.8%. For the same compound, the viability, T/C (second compound 0.1 µM, first compound 0.00949 µM) was 76%, the viability, T/C (second compound 0.1 µM, first compound 0.03 µM) was 71.7% and the viability, T/C (second compound 0.1 µM, first compound 0.0949 µM) was 47.4%. For the same compound, the viability, T/C (second compound 0.1 µM, first compound 0.3 µM) was 38.2%, the viability, T/C (second compound 0.1 µM, first compound 0.949 µM) was 30.9% and the viability, T/C (second compound 0.1 µM, first compound 3 µM) was 20.8%. The viability, T/C (second compound 0.316 µM, first compound 0.00949 µM) was 73.5%, the viability, T/C (second compound 0.316 µM, first compound 0.03 µM) was 70.4% and the viability, T/C (second compound 0.316 µM, first compound 0.0949 µM) was 41.4%. It also gave a viability, T/C (second compound 0.316 µM, first compound 0.3 µM) of 35.4%, a viability, T/C (second compound 0.316 µM, first compound 0.949 µM) of 22.3% and a viability, T/C (second compound 0.316 µM, first compound 3 µM) of 20%. It also gave a viability, T/C (second compound 1 µM, first compound 0.00949 µM) of 73.9%, a viability, T/C (second compound 1 µM, first compound 0.03 µM) of 65.6% and a viability, T/C (second compound 1 µM, first compound 0.0949 µM) of 47.7%. The viability, T/C (second compound 1 µM, first compound 0.3 µM) was 30.9%, the viability, T/C (second compound 1 µM, first compound 0.949 µM) was 26.2% and the viability, T/C (second compound 1 µM, first compound 3 µM) was 22.6%. For the same compound, the viability, T/C (second compound 3.16 µM, first compound 0.00949 µM) was 51%, the viability, T/C (second compound 3.16 µM, first compound 0.03 µM) was 56.6% and the viability, T/C (second compound 3.16 µM, first compound 0.0949 µM) was 38.6%. The viability, T/C (second compound 3.16 µM, first compound 0.3 µM) was 30.6%, the viability, T/C (second compound 3.16 µM, first compound 0.949 µM) was 27.4% and the viability, T/C (second compound 3.16 µM, first compound 3 µM) was 16%. It also gave a viability, T/C (second compound 10 µM, first compound 0.00949 µM) of 65.2%, a viability, T/C (second compound 10 µM, first compound 0.03 µM) of 59.6% and a viability, T/C (second compound 10 µM, first compound 0.0949 µM) of 39.4%. The viability, T/C (second compound 10 µM, first compound 0.3 µM) was 25.6%, the viability, T/C (second compound 10 µM, first compound 0.949 µM) was 22.6% and the viability, T/C (second compound 10 µM, first compound 3 µM) was 17.6%.
